Measured values: patent US7604982B2, “High-throughput screening method for intergrin antagonist and new peptide screened therefrom” (Proteogen Inc., priority 2003, dated 2009)
Residues, ends and D or L forms follow the SMILES beside them.

What was measured:
[1] = target: T1, integrin αvβ3-vitronectin interaction (Homo sapiens, UniProt P05106+P06756); assay: Competitive inhibition of integrin αvβ3-vitronectin interaction on integrin microarray (ProteoChip); assay type: binding; details: for IC50: half-maximal inhibition concentration relative to control without peptides, ND means no activity was detected; for inhibition of integrin αvβ3-vitronectin interaction (relative fluorescence intensity): vitronectin 100 ng/ml labeled with Cy-3, colour scale white highest, blue lowest
T1 construct: purchased Chemicon International, Inc. (CA, USA)
From the text: ProteoChip™ (Proteogen, Inc., Seoul, South Korea) was used as a protein chip and integrins were spotted on the ProteoChip™ (Proteogen, Inc., Seoul, South Korea) with the microarrayer (CM-1000; Proteogen, Inc., Seoul, South Korea) to fabricate integrin receptor microarray (See Lee, Y. S. et al.: ProteoChip: a highly sensitive protein microarray proposed by a novel method of protein immobilization for application of protein-protein interaction studies, Proteomics 2003; 3: 2289-2304). Integrin α11bβ3 was purified to homogeneity by GRGDSPK-Sepharose column chromatography from the platelet (See Kang I. C. and Kim D. S., Analysis of potent glycoprotein IIb-IIIa antagonist from natural sources. J Biochem Mol Biol 1998; 31: 515-518), and Integrin αvβ3 was commercially obtained from Chemicon International, Inc. (CA, USA).
Integrins (40 μg/mL) diluted with a phosphate-buffered saline (PBS) solution containing 10 mM β-octylthioglucopyranoside, 1.0 mM CaCl2, 11.0 mM MgCl2, and 30% glycerol were spotted and incubated at 37° C. for 3 hours, and then the remaining integrins after binding were washed with 0.5% PBST (PBS containing 0.5% Tween-20). The prepared integrin microarray was stored at 4° C. until before use. This integrin microarray (integrin-binding protein chip) was used for high-throughput screening of integrin receptor antagonist (See FIG. 1).
Mixtures of ligand protein (vitronectin 100 ng/ml) labeled with fluorescence (Cy-3) and known integrin antagonists such as disintegrins (echistatin 250 μg/ml, flavoridin 250 μg/ml, kistrin 250 μg/ml, and salmosin 2.6 ng/ml), a monoclonal antibody (mAb) against integrin 11.0 mg/ml, and various concentrations of synthetic RGD peptides (echistatin, flavoridin, kistrin: Sigma-Aldrich, USA; Salmosin: isolated and purified from recombinant E. Coli; monoclonal antibody against integrin: Chemicon International, Inc., USA; synthetic ROD peptides: synthesized in the Korea Research Institute of Bioscience and Biotechnology, South Korea) were dropped on the integrin receptor of the integrin αvβ3-binding protein chip prepared in Example 1 by using micropipette or microarrayer (CM-1000; Proteogen, Inc., Seoul, South Korea) and then were reacted in a oven of 37° C. and over 75% humidity for 4-12 hours. After reaction, those were washed for about 10 minutes with 0.5% PBST containing 3% BSA. Competitive inhibitory abilities of antagonists were measured by analyzing the degree of ligand binding as relative fluorescence intensity with a fluorescence scanner.
Antagonists used in FIG. 4 are already known as antagonistic material of integrin αvβ3-vitronectin. This is also a result analyzing whether mixing antagonists and vitronectin labeled with fluorescence inhibit or not the interaction between integrin αvβ3 and vitronectin. Control are the group having only vitronectin labeled with fluorescence without antagonists and the other groups are the results performed with antagonists and peptides including the amino acid sequence of RGE. The fluorescence intensity in FIG. 4 is expressed as rainbow colors like the explanation of FIG. 3. […] However, in case of groups having antagonists, antagonists inhibited the interaction between integrin αvβ3 and vitronectin, that is, integrin αvβ3 didn't bind to vitronectin, which made the color of fluorescence blue, the lowest color.
Mixtures of ligand protein (Fibrinogen 100 ng/ml and vitronectin 100 ng/ml) labeled with fluorescence (Cy-3) and 114 peptide pools from peptide library were dropped on the integrin receptor of integrin αvβ3-binding protein chip prepared in Example 1 by using micropipette or microarrayer (CM-1000; Proteogen, Inc., Seoul, South Korea) and then were reacted in oven of 37° C. and over 75% humidity for 4-12 hours. After reaction, those were washed for about 10 minutes with 0.5% PBST containing 3% BSA. […]

[2] = test system: angiogenesis in chick chorioallantoic membrane; assay: Inhibition assay of angiogenesis in a chick chorioallantoic membrane; assay type: in vivo; details: in the presence of bFGF, FIG. 10
Protocol: FIG. 10 is the result of analyzing effects of antagonistic peptides of integrin αvβ3 on angiogenesis in a chick chorioallantoic membrane. In vivo angiogenesis inhibition test was performed as one of biological characterization researches of the antagonistic peptides. A, positive control, is the result of the group treated with only bFGF without peptide; B, negative control, is the result of the group having only cells without bFGF; C is the result of the group treated with GRGDSP peptide in the presence of bFGF; D is the result of the group treated with HGDVHK peptide in the presence of bFGF; E is the result of the group treated with HSDVHK peptide in the presence of bFGF; and F is the result of the group treated with HHDVHK peptide in the presence of bFGF.
Fertilized eggs was purchased from Pulmuone Corp. (South Korea), Thermanox coverslips for sample loading was purchased from Nunc Company (USA), and 10% Intralipose (fat emulsion) for observation and syringes were purchased from Green Cross Company (South Korea).
On day 1 (0-day embryo): Fertilized egg was incubated in a incubator of 37-38° C. and over 90% humidity. The temperature and humidity were often checked to make sure the above conditions.
On day 3 (2-day embryo): The peaked end of fertilized egg was cracked with a knife. […] The pore was sealed with transparent tape to block infection and dryness of the fertilized egg. The egg was incubated again with the direction of pore toward the bottom.
On day 4 (3-day embryo): The window which diameter is 2-3 cm was made in the direction of air sac of fertilized egg (in the opposite direction of the above syringe pore) and the eggs confirmed as fertilized egg were sealed with broad transparent tape and incubated again. For reference, round window was made as follows. A round shape of scratch was made on the eggshell with a sharp knife and eggshell then was taken away with a pincette.
On day 5 (4.5-day embryo): CAM is usually created at this time and the diameter is about 2-5 mm. […]

[3] = test system: Lewis lung carcinomas cells; assay: Growth inhibition assay of subcutaneous solid tumor; assay type: in vivo, C57BL/6 mice; details: 100 mg/kg mouse, subcutaneous injection once daily, FIGS. 11-13
Protocol: Lewis lung carcinomas cells (1×10^6) were injected subcutaneously into dorsal midline of C57BL/6 mice. When tumors were 100-200 mm^3 in volume, the mice were randomized into three groups. Two groups received HGDVHK or HSDVHK (100 mg/kg mouse), respectively, in PBS via subcutaneous injection at a site distant from the tumor once daily. […] The sizes of the tumors in all groups were measured at the same time everyday. The experiments were terminated when the control mice began to die.

[4] = test system: human umverical vein endothelial cell (HUVEC); assay: HUVEC migration assay (Boyden chamber, bFGF chemoattractant); assay type: cell-based; details: bFGF-induced, 4 hours at 37° C., FIG. 9
Protocol: HUVE cell was cultured in M199 medium containing 10% fetal calf serum and 3 ng/ml bFGF. This cell was cultured in the control medium (M199 containing 0.1% BSA) for 16 hours to be used in migration assay, and then 3×10^4 cells were added to upper chamber of porous membrane coated with gelatin (40 μM) and inserted in Boyden chamber. Samples were treated at the same time in a concentration-dependent manner. Chemoattractant, bFGF, was added in the bottom chamber to induce HUVE cell to migrate into lower chamber. The chamber was incubated for 4 hours at 37° C. and then the membrane was removed. After fixation, cell was stained with crystal violet and cells migrating across the membrane were counted with a microscope.

human malignant melanoma = details: cited from earlier work
[5] = test system: blood endothelial alpha(5) and alpha(v)-integrin; details: endothelial cell migration; cited from earlier work

Row | Molecule | IC50 [1] [nM] | inhibitory effect on CAM angiogenesis [2] | inhibition of integrin αvβ3-vitronectin interaction (relative fluorescence intensity) [1] | inhibition of HUVEC migration [4] | further results
1 | CC(C)C[C@H](NC(=O)[C@H](Cc1c[nH]cn1)NC(=O)[C@@H](N)Cc1c[nH]cn1)C(=O)N[C@H](C(=O)N[C@@H](Cc1c[nH]cn1)C(=O)N[C@@H](CCCCN)C(N)=O)C(C)C [HHLVHK-NH2] (H-HHLVHK-NH2; N-terminus assumed) | 0.407 | – | – | – | –
2 | HHDVHK [HHDVHK-NH2] | – | had little effect | didn't reveal any inhibitory activity | had little effect | –
3 | CC(C)[C@H](NC(=O)[C@H](CC(=O)O)NC(=O)CNC(=O)[C@@H](N)Cc1c[nH]cn1)C(=O)N[C@@H](Cc1c[nH]cn1)C(=O)N[C@@H](CCCCN)C(N)=O [HGDVHK-NH2] (H-HGDVHK-NH2; N-terminus assumed) | 0.0647 | showed different inhibitory effects | stronger inhibitory activity in integrin αvβ3-specific inhibitory test than GRGDSP | significantly inhibited | –
4 | CC(C)[C@H]1C(=O)N[C@@H](CCCN=C(N)N)C(=O)NCC(=O)N[C@@H](CC(=O)O)C(=O)N[C@H](Cc2ccccc2)C(=O)N1C [EMD121974] | – | – | – | – | angiogenesis inhibition and cancer growth suppression in animal test (human malignant melanoma): activity inhibiting angiogenesis and thus suppressing cancer growth
5 | CC(C)C[C@H](NC(=O)[C@H](CO)NC(=O)[C@@H](N)Cc1c[nH]cn1)C(=O)N[C@H](C(=O)N[C@@H](Cc1c[nH]cn1)C(=O)N[C@@H](CCCCN)C(N)=O)C(C)C [HSLVHK-NH2] (H-HSLVHK-NH2; N-terminus assumed) | 0.064 | – | – | – | –
6 | recombinant human endostatin: recombinant human endostatin interacting with endothelial alpha(5) and alpha(v)-integrin (protein, UniProt P39060 1572-1754, looked up, Endostatin) Endostatin: HSHRDFQPVLHLVALNSPLSGGMRGIRGADFQCFQQARAVGLAGTFRAFLSSRLQDLYSIVRRADRAAVPIVNLKDELLFPSWEALFSGSEGPLKPGARIFSFDGKDVLRHPTWPQKSVWHGSDPNGRRLTESYCETWRTEAPSATGQASSLLGGRLLGQSAASCHHAYIVLCIENSFMTASK | – | – | – | – | inhibition of integrin-dependent endothelial function [5]: inhibit integrin-dependent endothelial function such as endothelial cell migration

The next lines start with results.

Row | IC50 [1] [nM] | Molecule | inhibitory effect on CAM angiogenesis [2] | inhibition of integrin αvβ3-vitronectin interaction (relative fluorescence intensity) [1] | inhibition of HUVEC migration [4] | further results
7 | 0.00241 | CC(C)[C@H](NC(=O)[C@H](CC(=O)O)NC(=O)[C@H](CO)NC(=O)[C@@H](N)Cc1c[nH]cn1)C(=O)N[C@@H](Cc1c[nH]cn1)C(=O)N[C@@H](CCCCN)C(N)=O [HSDVHK-NH2] (H-HSDVHK-NH2; N-terminus assumed) | showed different inhibitory effects | stronger inhibitory activity in integrin αvβ3-specific inhibitory test than GRGDSP | significantly inhibited | growth of solid tumor [3]: largely suppressed
8 | 0.00434 | CC(C)C[C@H](NC(=O)[C@H](CC(C)C)NC(=O)[C@H](Cc1c[nH]cn1)NC(=O)[C@@H](N)Cc1c[nH]cn1)C(=O)N[C@@H](Cc1c[nH]cn1)C(=O)N[C@@H](CCCCN)C(N)=O [HHLLHK-NH2] (H-HHLLHK-NH2; N-terminus assumed) | – | – | – | –
9 | 0.0436 | CC(C)C[C@H](NC(=O)[C@H](CC(=O)O)NC(=O)CNC(=O)[C@@H](N)Cc1c[nH]cn1)C(=O)N[C@@H](Cc1c[nH]cn1)C(=O)N[C@@H](CCCCN)C(N)=O [HGDLHK-NH2] (H-HGDLHK-NH2; N-terminus assumed) | – | – | – | –
10 | 0.00353 | CC(C)C[C@H](NC(=O)CNC(=O)[C@@H](N)Cc1c[nH]cn1)C(=O)N[C@H](C(=O)N[C@@H](Cc1c[nH]cn1)C(=O)N[C@@H](CCCCN)C(N)=O)C(C)C [HGLVHK-NH2] (H-HGLVHK-NH2; N-terminus assumed) | – | – | – | –
